Results on 14 compounds are retold here after patent US20260265235A1, “BICYCLOAMINE CARBOXAMIDE DERIVATIVE” (Sumitomo Pharma Co., Ltd., priority 2022, published 2026).

In the assay the target is T1, Human orexin receptor type 2 (Homo sapiens, UniProt O43614).
T1 construct: expressed in transfected cells; host or cells: CHO cells (transient expression, with apoaequorin)
T1 sequence (O43614 1-444): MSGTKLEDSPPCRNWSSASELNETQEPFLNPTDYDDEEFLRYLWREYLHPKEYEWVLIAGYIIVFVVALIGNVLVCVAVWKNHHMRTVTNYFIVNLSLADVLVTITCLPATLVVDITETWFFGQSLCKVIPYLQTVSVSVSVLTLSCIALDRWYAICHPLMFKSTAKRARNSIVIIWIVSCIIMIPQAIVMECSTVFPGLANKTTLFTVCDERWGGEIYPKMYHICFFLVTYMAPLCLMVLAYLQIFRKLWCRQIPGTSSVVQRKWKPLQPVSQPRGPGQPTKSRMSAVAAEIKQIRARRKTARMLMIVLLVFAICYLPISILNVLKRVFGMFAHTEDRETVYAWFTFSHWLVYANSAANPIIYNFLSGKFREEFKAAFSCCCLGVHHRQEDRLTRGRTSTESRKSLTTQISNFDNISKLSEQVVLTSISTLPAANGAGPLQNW
The assay is described as follows: Test Example 2: agonist activity for orexin receptor type 2 (aequorin luminescence, intracellular calcium mobilization in CHO cells). Type of assay: cell-based. To be noted: compound 10 μM; relative percentage of luminescence for the luminescence (100%) of Orexin A (100 μM); CHO cells transiently expressing human orexin receptor type 2 and apoaequorin. On the procedure: Test Example 2: Measurement of Agonist Activity for Orexin Receptor Type 2
Human orexin receptor type 2 and apoaequorin were transiently expressed in CHO cells, and the agonist activity was evaluated based on intracellular calcium mobilization with ligand stimulation. The CHO cells transiently-expressed human orexin receptor type 2 and apoaequorin were seeded on a 384-well plate by 2,000 cells/well, and then incubated for 16-22 hours. After the plate was returned to room temperature, Coelenterazine hcp (final concentration: 1 μM) was added to the plate, and the plate was allowed to stand at room temperature for 2 hours. And then, Orexin A (PEPTIDE INSTITUTE, INC., Lot. 711101) or each test compound was added to the plate, and the luminescence of the cells was measured with FDSS7000 (Hamamatsu Photonics K.K.), wherein Orexin A and each test compound were dissolved in DMSO (final concentration: 0.1%), and diluted with a buffer (Hanks, 20 mM HEPES, 0.1% BSA). The agonist activity of each test compound for orexin receptor type 2 was calculated as relative percentage of luminescence for the luminescence (100%) of Orexin A (100 μM).
Each agonist activity of the compounds obtained in Examples (10 μM) for orexin receptor type 2 is shown in the table below as relative percentage of luminescence for the luminescence (100%) of Orexin A (100 μM).
Background: Calcium assays in cells follow changes in intracellular calcium, usually with a dye or a luminescent sensor.
For the compound `CC(C)N1CCN([C@H]2CCCC(F)(F)[C@@H]2NC(=O)N2C[C@H]3C[C@@H](c4ncccn4)C[C@H]3C2)CC1` [Example 26, (3aR,5R,6aS)—N-{(1R,6S)-2,2-difluoro-6-[4-(propan-2-yl)piperazin-1-yl]cyclohexyl}-5-(pyrimidin-2-yl)hexahydropenta[c]pyrrole-2(1H)-carboxamide], the “Agonist Activity (%)” value is 345%.
Regarding `CC(C)N1CCN([C@H]2CCCC(F)(F)[C@@H]2NC(=O)N2C[C@@H]3CN(c4ccccc4F)C[C@@H]3C2)CC1` [Example 19, (3aR,6aS)—N-{(1R,6S)-2,2-difluoro-6-[4-(propan-2-yl)piperazin-1-yl]cyclohexyl}-5-(2-fluorophenyl)hexahydropyrrolo[3,4-c]pyrrole-2(1H)-carboxamide], the “Agonist Activity (%)” value was 390%.
The same measure for `CC(C)N1CCN([C@H]2CCCC(F)(F)[C@@H]2NC(=O)N2C[C@@H]3CN(c4ccccn4)C[C@@H]3C2)CC1` [Example 20, (3aR,6aS)—N-{(1R,6S)-2,2-difluoro-6-[4-(propan-2-yl)piperazin-1-yl]cyclohexyl}-5-(pyridin-2-yl)hexahydropyrrolo[3,4-c]pyrrole-2(1H)-carboxamide]: 345%.
The figure for `CC(C)N1CCN([C@H]2CCCC(F)(F)[C@@H]2NC(=O)N2C[C@H]3C[C@@H](c4ccccn4)C[C@H]3C2)CC1` [Example 25, (3aR,5R,6aS)—N-{(1R,6S)-2,2-difluoro-6-[4-(propan-2-yl)piperazin-1-yl]cyclohexyl}-5-(pyridin-2-yl)hexahydropenta[c]pyrrole-2(1H)-carboxamide] is 396%; for `CC(C)N1CCN([C@H]2CCCC(F)(F)[C@@H]2NC(=O)N2C[C@@H]3CN(c4cccc(F)c4)C[C@@H]3C2)CC1` [Example 22, (3aR,6aS)—N-{(1R,6S)-2,2-difluoro-6-[4-(propan-2-yl)piperazin-1-yl]cyclohexyl}-5-(3-fluorophenyl)hexahydropyrrolo[3,4-c]pyrrole-2(1H)-carboxamide] it is 399%.
As to `CC(C)N1CC[C@H](O[C@H]2CCCC(F)(F)[C@@H]2NC(=O)N2C[C@H]3CC(c4ccccc4)C[C@H]3C2)C1` (stereo partly drawn) [Example 28, (3aR,5R,6aS)—N-[(1R,6S)-2,2-difluoro-6-{[(3S)-1-(propan-2-yl)pyrrolidin-3-yl]oxy}cyclohexyl]-5-phenylhexahydropenta[c]pyrrole-2(1H)-carboxamide], the “Agonist Activity (%)” value is recorded as 400%.
`CC(C)N1CC[C@H](N(C)[C@H]2CCCC(F)(F)[C@@H]2NC(=O)N2C[C@H]3CC(c4ccccc4)C[C@H]3C2)C1` (stereo partly drawn) [Example 33, (3aR,5R,6aS)—N-[(1R,6S)-2,2-difluoro-6-{methyl[(3S)-1-(propan-2-yl)pyrrolidin-3-yl]amino}cyclohexyl]-5-phenylhexahydropenta[c]pyrrole-2(1H)-carboxamide]: the “Agonist Activity (%)” value is 343%.
Regarding `Cc1cccc([C@@H]2C[C@@H]3CN(C(=O)N[C@@H]4[C@@H](N5CCN(C(C)C)CC5)CCCC4(F)F)C[C@@H]3C2)c1` [Example 24, (3aR,5R,6aS)—N-{(1R,6S)-2,2-difluoro-6-[4-(propan-2-yl)piperazin-1-yl]cyclohexyl}-5-(3-methylphenyl)hexahydropenta[c]pyrrole-2(1H)-carboxamide], the “Agonist Activity (%)” value is on record as 414%.
Take `Cc1ccc(N2C[C@H]3CN(C(=O)N[C@@H]4[C@@H](N5CCN(C(C)C)CC5)CCCC4(F)F)C[C@H]3C2)cc1` [Example 23, (3aR,6aS)—N-{(1R,6S)-2,2-difluoro-6-[4-(propan-2-yl)piperazin-1-yl]cyclohexyl}-5-(4-methylphenyl)hexahydropyrrolo[3,4-c]pyrrole-2(1H)-carboxamide]: the “Agonist Activity (%)” value was 404%.
The same measure for `Cc1nc(C2C[C@H]3CC(C(=O)N[C@@H]4[C@@H](O[C@H]5CCN(C(C)C)C5)CCCC4(F)F)C[C@H]3C2)no1` (stereo partly drawn) [Example 32, (3aR,5R,6aS)—N-[(1R,6S)-2,2-difluoro-6-{[(3S)-1-(propan-2-yl)pyrrolidin-3-yl]oxy}cyclohexyl]-5-(5-methyl-1,2,4-oxadiazol-3-yl)hexahydropenta[c]pyrrole-2(1H)-carboxamide]: 345%.
In the case of `CC(C)N1CC[C@H](O[C@H]2CCCC(F)(F)[C@@H]2NC(=O)N2C[C@@H]3CN(c4ccccc4)C[C@@H]3C2)C1` [Example 29, (3aR,6aS)—N-[(1R,6S)-2,2-difluoro-6-{[(3S)-1-(propan-2-yl)pyrrolidin-3-yl]oxy}cyclohexyl]-5-phenylhexahydropyrrolo[3,4-c]pyrrole-2(1H)-carboxamide], the “Agonist Activity (%)” value worked out at 393%.
`Cc1nc(C2C[C@@H]3CN(C(=O)N[C@@H]4[C@@H](N(C)[C@H]5CCN(C(C)C)C5)CCCC4(F)F)C[C@@H]3C2)no1` (stereo partly drawn) [Example 31, (3aR,5R,6aS)—N-[(1R,6S)-2,2-difluoro-6-{methyl[(3S)-1-(propan-2-yl)pyrrolidin-3-yl]amino}cyclohexyl]-5-(5-methyl-1,2,4-oxadiazol-3-yl)hexahydropenta[c]pyrrole-2(1H)-carboxamide]: the “Agonist Activity (%)” value came out at 252%.
The same measure for `CC(C)N1CC[C@H](N(C)[C@H]2CCCC(F)(F)[C@@H]2NC(=O)N2C[C@@H]3CN(c4ccccc4)C[C@@H]3C2)C1` [Example 34, (3aR,6aS)—N-[(1R,6S)-2,2-difluoro-6-{methyl[(3S)-1-(propan-2-yl)pyrrolidin-3-yl]amino}cyclohexyl]-5-phenylhexahydropyrrolo[3,4-c]pyrrole-2(1H)-carboxamide]: 341%; for `Cc1nc([C@@H]2C[C@@H]3CN(C(=O)N[C@@H]4[C@@H](N5CCN(C(C)C)CC5)CCCC4(F)F)C[C@@H]3C2)no1` [Example 30, (3aR,5R,6aS)—N-{(1R,6S)-2,2-difluoro-6-[4-(propan-2-yl)piperazin-1-yl]cyclohexyl}-5-(5-methyl-1,2,4-oxadiazol-3-yl)hexahydropenta[c]pyrrole-2(1H)-carboxamide]: 374%.
